Measurements published in patent US11834453B2, “Substituted pyrimido[5,4-d]pyrimidines as HER2 inhibitors” (Array BioPharma Inc., priority 2020, dated 2023).
Read-outs that look alike come from different tables or passages of the source.

Experiments:
[1] = molecular target: EGFR (Homo sapiens (Human), UniProt P00533); test: ErbB enzyme assay (CisBio HTRF KinEASE-TK), Assay 3; type: biochemical
In short: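 Kinase + 250 nM biotin TK-substrate, 1 mM ATP, cpd (3-fold dil.), HEPES pH 7.4/10 mM MgCl2/0.01% Triton/2% DMSO; 30 min 22 °C. Quench w/ Sa-XL665 + TK-Ab-Cryptate, 1 h, HTRF. IC50 = 50 POC on 4PL fit.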

[2] = molecular target: MDR1 (P-gp) (Homo sapiens (Human), UniProt P08183); test: MDR1 transfected MDCKII canine Mdr1 knockout permeability/efflux, Assay 7; conditions: for efflux ratio at 2 h, 1 μM: dog, MDCK-MDR1
[3] = molecular target: ErbB2 with Exon 20 YVMA insertion (HER2-YVMA) (Homo sapiens (Human), UniProt P04626, INS775YVMA); test: Cellular phosphorylation assay, constitutive ErbB2 phosphorylation (Y1196) in engineered NIH 3T3 cells, Assay 4; type: cell-based
In short: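 Engineered NIH 3T3 cells expressing HER2-YVMA treated with compounds 1 h at 37 °C, then formaldehyde-fixed and methanol-permeabilized. pErbB2 Y1196 detected by in-cell infrared immunofluorescence, normalized to GAPDH. IC50 from the normalized curves.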

[4] = molecular target: EGFR wild type (EGFR WT) (Homo sapiens (Human), UniProt P00533); test: Cellular phosphorylation assay, EGF-stimulated EGFR phosphorylation in engineered NIH 3T3 cells, Phospho-EGFR DuoSet IC ELISA, Assay 5; type: cell-based
In short: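 NIH 3T3 cells expressing EGFR WT (20,000/well, attached overnight) were exposed to serially diluted compound for 1 h at 37 °C, then stimulated with 100 ng/ml rEGF for 10 min. Phospho-EGFR in lysates measured by sandwich ELISA optical density; IC50 from curves.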

[5] = molecular target: ErbB2 WT (Homo sapiens (Human), UniProt P04626); test: ErbB enzyme assay (CisBio HTRF KinEASE-TK), Assay 2; type: biochemical
In short: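 ErbB2 phosphorylates 250 nM biotin-TK substrate at 1 mM ATP in 25 mM HEPES pH 7.4, 10 mM MgCl2, 0.01% Triton X-100 and 2% DMSO, for 30 min at 22 °C. Product is detected by HTRF with Sa-XL665 and TK-Ab-Cryptate. Percent of control is set by DMSO-only wells and pre-quenched wells.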

[6] = molecular target: ErbB2 insYVMA (HER2-YVMA, SEQ ID NO: 2) (Homo sapiens, UniProt P04626, INS775YVMA/P1170A); test: biochemical; conditions: ErbB2 insYVMA enzyme assay
[7] = molecular target: BCRP (Homo sapiens (Human), UniProt Q9UNQ0); test: BCRP transfected MDCKII canine Mdr1 knockout permeability/efflux, Assay 9; conditions: for efflux ratio at 2 h, 1 μM: dog
[8] = Assay 9 Pe Ratio, efflux ratio Papp(B-A)/Papp(A-B), BCRP transfected MDCKII canine Mdr1 knockout

Sequence of ErbB2 with Exon 20 YVMA insertion (HER2-YVMA) (P04626 other isoform, or with tags, fused parts or gaps ins YVMA behind 775): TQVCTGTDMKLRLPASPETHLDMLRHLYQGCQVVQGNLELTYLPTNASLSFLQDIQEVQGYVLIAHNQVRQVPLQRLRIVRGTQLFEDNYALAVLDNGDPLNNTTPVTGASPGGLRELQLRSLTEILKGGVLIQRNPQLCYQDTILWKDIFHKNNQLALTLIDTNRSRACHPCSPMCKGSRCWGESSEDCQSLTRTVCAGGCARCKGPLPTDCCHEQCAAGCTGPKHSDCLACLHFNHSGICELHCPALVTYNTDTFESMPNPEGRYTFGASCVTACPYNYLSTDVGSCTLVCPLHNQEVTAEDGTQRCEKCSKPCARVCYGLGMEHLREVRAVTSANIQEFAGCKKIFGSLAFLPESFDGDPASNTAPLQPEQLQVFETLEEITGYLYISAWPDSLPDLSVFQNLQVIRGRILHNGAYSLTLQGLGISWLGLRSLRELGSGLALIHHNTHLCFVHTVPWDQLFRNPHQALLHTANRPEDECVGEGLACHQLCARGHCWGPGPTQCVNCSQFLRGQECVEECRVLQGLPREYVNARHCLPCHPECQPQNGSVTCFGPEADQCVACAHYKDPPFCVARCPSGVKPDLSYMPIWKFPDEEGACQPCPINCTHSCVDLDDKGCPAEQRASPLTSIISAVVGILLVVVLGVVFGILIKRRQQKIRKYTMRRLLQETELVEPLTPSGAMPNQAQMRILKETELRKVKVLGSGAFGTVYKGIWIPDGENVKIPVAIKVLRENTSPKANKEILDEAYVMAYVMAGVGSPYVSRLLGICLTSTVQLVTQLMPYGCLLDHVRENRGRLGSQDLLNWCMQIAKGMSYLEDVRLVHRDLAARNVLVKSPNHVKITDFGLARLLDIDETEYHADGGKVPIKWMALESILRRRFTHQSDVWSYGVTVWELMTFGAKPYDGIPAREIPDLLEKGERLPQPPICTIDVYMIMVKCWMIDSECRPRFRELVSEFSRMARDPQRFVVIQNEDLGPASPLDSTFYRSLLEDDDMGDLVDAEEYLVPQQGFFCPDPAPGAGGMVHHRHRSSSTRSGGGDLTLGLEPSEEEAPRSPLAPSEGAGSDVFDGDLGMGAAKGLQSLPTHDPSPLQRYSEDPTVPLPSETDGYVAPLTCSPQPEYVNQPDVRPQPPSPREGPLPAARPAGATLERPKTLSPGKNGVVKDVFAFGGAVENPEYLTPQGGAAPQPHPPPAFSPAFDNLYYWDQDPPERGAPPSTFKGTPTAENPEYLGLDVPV
Sequence of ErbB2 WT (P04626 23-1255): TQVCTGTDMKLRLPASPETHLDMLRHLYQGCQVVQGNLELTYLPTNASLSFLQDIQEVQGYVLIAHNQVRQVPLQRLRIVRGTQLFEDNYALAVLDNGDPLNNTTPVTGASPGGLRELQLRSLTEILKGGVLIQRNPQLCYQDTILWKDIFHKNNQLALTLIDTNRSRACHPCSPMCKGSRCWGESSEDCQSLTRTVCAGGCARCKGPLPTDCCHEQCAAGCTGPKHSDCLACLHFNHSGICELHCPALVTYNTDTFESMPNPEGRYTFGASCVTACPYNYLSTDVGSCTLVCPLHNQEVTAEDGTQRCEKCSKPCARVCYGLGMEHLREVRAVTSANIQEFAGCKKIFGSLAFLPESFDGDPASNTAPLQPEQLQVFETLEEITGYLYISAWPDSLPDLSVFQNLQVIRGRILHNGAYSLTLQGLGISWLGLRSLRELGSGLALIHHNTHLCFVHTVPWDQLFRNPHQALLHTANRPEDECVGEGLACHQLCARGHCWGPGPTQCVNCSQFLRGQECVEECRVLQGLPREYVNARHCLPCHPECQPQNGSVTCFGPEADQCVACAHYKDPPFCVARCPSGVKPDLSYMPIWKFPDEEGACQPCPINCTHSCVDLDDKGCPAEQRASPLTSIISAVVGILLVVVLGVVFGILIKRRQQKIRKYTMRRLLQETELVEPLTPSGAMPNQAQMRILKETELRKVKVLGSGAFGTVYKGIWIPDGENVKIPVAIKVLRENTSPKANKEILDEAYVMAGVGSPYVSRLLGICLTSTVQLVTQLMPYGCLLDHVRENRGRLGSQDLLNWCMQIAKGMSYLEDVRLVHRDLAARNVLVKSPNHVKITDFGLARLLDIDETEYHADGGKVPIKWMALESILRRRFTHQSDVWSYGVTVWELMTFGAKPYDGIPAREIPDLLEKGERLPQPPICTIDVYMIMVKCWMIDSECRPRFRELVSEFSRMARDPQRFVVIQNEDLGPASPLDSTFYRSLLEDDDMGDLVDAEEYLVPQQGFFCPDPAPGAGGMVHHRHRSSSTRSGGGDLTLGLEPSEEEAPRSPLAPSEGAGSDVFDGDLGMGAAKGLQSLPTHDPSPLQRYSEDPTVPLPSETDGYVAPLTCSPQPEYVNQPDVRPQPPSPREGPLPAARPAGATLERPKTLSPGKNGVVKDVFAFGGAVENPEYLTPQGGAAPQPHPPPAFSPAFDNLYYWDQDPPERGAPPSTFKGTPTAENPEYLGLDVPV
Sequence of BCRP (Q9UNQ0 whole entry): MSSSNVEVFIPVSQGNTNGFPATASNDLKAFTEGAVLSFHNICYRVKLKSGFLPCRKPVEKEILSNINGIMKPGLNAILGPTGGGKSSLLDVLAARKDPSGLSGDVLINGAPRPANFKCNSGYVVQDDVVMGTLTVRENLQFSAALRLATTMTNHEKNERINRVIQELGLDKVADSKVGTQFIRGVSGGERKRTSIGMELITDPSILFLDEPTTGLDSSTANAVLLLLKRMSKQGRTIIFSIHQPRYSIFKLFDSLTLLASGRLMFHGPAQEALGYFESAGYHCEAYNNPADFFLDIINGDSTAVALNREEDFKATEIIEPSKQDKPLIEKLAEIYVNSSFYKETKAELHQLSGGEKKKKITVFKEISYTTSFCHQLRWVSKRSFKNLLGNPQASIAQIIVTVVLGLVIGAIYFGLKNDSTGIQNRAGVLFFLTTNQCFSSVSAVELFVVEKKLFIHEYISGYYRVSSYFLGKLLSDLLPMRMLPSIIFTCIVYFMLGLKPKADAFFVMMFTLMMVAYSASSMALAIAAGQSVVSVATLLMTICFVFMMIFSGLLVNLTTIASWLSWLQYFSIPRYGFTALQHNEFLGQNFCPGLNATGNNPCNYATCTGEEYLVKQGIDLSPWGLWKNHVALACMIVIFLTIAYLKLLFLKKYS
Sequence of EGFR wild type (EGFR WT) (P00533 25-1210): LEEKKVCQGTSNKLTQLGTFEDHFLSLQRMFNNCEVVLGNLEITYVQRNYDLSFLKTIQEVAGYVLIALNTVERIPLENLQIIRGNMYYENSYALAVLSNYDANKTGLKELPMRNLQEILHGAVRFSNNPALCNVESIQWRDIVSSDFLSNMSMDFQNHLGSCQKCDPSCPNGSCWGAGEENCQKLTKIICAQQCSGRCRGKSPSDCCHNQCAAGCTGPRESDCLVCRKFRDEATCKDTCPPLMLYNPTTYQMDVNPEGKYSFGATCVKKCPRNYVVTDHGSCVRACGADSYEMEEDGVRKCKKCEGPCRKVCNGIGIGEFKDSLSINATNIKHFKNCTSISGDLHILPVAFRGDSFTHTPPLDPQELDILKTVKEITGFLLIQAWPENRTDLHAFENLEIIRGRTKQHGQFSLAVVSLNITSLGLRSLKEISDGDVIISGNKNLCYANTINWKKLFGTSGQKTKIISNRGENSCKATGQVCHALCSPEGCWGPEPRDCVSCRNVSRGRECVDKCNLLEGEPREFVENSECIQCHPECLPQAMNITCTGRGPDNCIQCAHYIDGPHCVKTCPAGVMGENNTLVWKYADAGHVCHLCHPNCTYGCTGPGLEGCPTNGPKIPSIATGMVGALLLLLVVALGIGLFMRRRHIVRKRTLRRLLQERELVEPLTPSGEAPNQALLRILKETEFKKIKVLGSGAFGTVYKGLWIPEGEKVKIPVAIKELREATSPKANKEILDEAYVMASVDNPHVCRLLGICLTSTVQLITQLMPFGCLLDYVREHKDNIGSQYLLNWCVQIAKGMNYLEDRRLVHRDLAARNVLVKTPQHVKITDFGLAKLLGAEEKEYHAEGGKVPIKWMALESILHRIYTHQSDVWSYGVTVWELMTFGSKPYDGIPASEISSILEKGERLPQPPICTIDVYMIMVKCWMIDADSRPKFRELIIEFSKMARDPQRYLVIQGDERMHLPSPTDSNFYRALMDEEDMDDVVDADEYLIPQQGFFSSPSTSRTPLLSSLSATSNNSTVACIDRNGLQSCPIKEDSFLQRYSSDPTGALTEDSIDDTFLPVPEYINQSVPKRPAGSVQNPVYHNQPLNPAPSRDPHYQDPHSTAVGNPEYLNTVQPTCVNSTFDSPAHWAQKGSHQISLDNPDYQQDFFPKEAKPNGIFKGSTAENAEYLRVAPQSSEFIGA

| Structure (SMILES) | IC50 [1] | efflux ratio at 2 h, 1 μM [2] | IC50 [3] | IC50 [4] | IC50 [5] | IC50 ([6]; read-out: Assay 1 IC50) | efflux ratio at 2 h, 1 μM [7, 8] | Assay 7 Pe Ratio ([2]; efflux ratio Papp(B-A)/Papp(A-B), MDR1 transfected MDCKII canine Mdr1 knockout) | Assay 9 Pe Ratio ([7]; efflux ratio Papp(B-A)/Papp(A-B), BCRP transfected MDCKII canine Mdr1 knockout) | efflux ratio at 2 h, 1 μM [7] | IC50 ([6]; Assay 1 IC50 (nM)) |
| --- | --- | --- | --- | --- | --- | --- | --- | --- | --- | --- | --- |
| Cc1cc(Nc2ncnc3cnc(N4CCN[C@@H](C(F)(F)F)C4)nc23)ccc1Oc1ccc2c(c1)ncn2C [Example 182, (R)—N-(3-methyl-4-((1-methyl-1H-benzo[d]imidazol-5-yl)oxy)phenyl)-6-(3-(trifluoromethyl)piperazin-1-yl)pyrimido[5,4-d]pyrimidin-4-amine] | 3130 nM | 1.3 | 17.7 nM | ≥ 5000 nM | 34.7 nM | 29.5 nM | 1.9 |  |  |  |  |
| Cc1cc(Nc2ncnc3cnc(N4CC[C@@H](C(C)(C)O)C4)nc23)ccc1Oc1ccc2c(c1)ncn2C [Example 113, (R)-2-(1-(8-((3-methyl-4-((1-methyl-1H-benzo[d]imidazol-5-yl)oxy)phenyl)amino)pyrimido[5,4-d]pyrimidin-2-yl)pyrrolidin-3-yl)propan-2-ol] | 8480 nM | 0.9 | 9.5 nM | ≥ 5000 nM | 23 nM | 13.1 nM | 11 |  |  |  |  |
| CN(c1ncc2ncnc(Nc3ccc(Oc4ccc5c(c4)ncn5C)c(Cl)c3)c2n1)C1COC1 [Example 123, N8-(3-chloro-4-((1-methyl-1H-benzo[d]imidazol-5-yl)oxy)phenyl)-N2-methyl-N2-(oxetan-3-yl)pyrimido[5,4-d]pyrimidine-2,8-diamine] | ≥ 10000 nM | 1.6 | 13.2 nM | ≥ 5000 nM | 118 nM | 26.5 nM | 2.4 |  |  |  |  |
| Cc1cc(Nc2ncnc3cnc(N(C)[C@@H]4CCOC4)nc23)ccc1Oc1ccc2c(c1)ncn2C [Example 128, (R)—N2-methyl-N8-(3-methyl-4-((1-methyl-1H-benzo[d]imidazol-5-yl)oxy)phenyl)-N2-(tetrahydrofuran-3-yl)pyrimido[5,4-d]pyrimidine-2,8-diamine] | 3270 nM | 1.6 | 36.3 nM | ≥ 5000 nM | 20 nM | 21 nM | 1.4 |  |  |  |  |
| Cc1cc(Nc2ncnc3cnc(N4C[C@H]5C[C@@H]4C[C@@H]5O)nc23)ccc1Oc1ccc2c(c1)ncn2C [Example 157, (1R,4R,5S)-2-(8-((3-methyl-4-((1-methyl-1H-benzo[d]imidazol-5-yl)oxy)phenyl)amino)pyrimido[5,4-d]pyrimidin-2-yl)-2-azabicyclo[2.2.1]heptan-5-ol] | ≥ 10000 nM |  | 27.8 nM | ≥ 5000 nM | 56.8 nM | 33.5 nM |  | 2.1 | 21.0 |  |  |
| Cc1cc(Nc2ncnc3cnc(N(C)CC4COC4)nc23)ccc1Oc1ccc2c(c1)ncn2C [Example 402] | ≥ 10000 nM | 1.4 | 14.9 nM | ≥ 5000 nM | 14.9 nM | 39.7 nM | 2.3 |  |  |  |  |
| Cc1cc(Nc2ncnc3cnc(N(C)[C@H]4C[C@](C)(O)C4)nc23)ccc1Oc1ccc2c(c1)ncn2C [Example 171, (1r,3r)-1-methyl-3-(methyl(8-((3-methyl-4-((1-methyl-1H-benzo[d]imidazol-5-yl)oxy)phenyl)amino)pyrimido[5,4-d]pyrimidin-2-yl)amino)cyclobutan-1-ol] | 472 nM | 1.9 | 7.1 nM | ≥ 5000 nM | 5.9 nM | 13.5 nM | 8.6 |  |  |  |  |
| Cn1cnc2cc(Oc3ccc(Nc4ncnc5cnc(N6CCC7COCC76)nc45)cc3Cl)ccc21 (stereo not shown) [Example 114, N-(3-chloro-4-((1-methyl-1H-benzo[d]imidazol-5-yl)oxy)phenyl)-6-(hexahydro-1H-furo[3,4-b]pyrrol-1-yl)pyrimido[5,4-d]pyrimidin-4-amine] | 7890 nM | 1.5 | 20.1 nM | ≥ 5000 nM | 96.3 nM | 50.1 nM | 1.2 |  |  |  |  |
| Cc1cc(Nc2ncnc3cnc(N4CC[C@@](C)(O)C4)nc23)c(F)cc1Oc1ccc2c(c1)ncn2C [Example 214, (R)-1-(8-((2-fluoro-5-methyl-4-((1-methyl-1H-benzo[d]imidazol-5-yl)oxy)phenyl)amino)pyrimido[5,4-d]pyrimidin-2-yl)-3-methylpyrrolidin-3-ol] | ≥ 10000 nM | 1.5 | 28.1 nM | ≥ 5000 nM | 46.6 nM | 15.4 nM | 8.8 |  |  |  |  |
| Cc1cc(Nc2ncnc3cnc(N4C[C@@H](O)C5(CC5)C4)nc23)ccc1Oc1ccc2c(c1)ncn2C [Example 211, (S)-5-(8-((3-methyl-4-((1-methyl-1H-benzo[d]imidazol-5-yl)oxy)phenyl)amino)pyrimido[5,4-d]pyrimidin-2-yl)-5-azaspiro[2.4]heptan-7-ol] | 3140 nM | 3.3 | 14.8 nM | ≥ 5000 nM | 31 nM | 10.9 nM |  |  |  | 25.2 |  |
| Cc1c(Oc2ccn3ncnc3c2)ccc(Nc2ncnc3cnc(N4CCC(C)(O)CC4)nc23)c1F [Example 304] | 2840 nM | 1.2 | 114 nM | ≥ 5000 nM | 48.6 nM | 11.7 nM | 7.3 |  |  |  |  |
| Cc1cc(Nc2ncnc3cnc(N4CCC(C)(O)CC4)nc23)ccc1Oc1ccn2ncnc2c1 [Example 120, 1-(8-((4-([1,2,4]triazolo[1,5-a]pyridin-7-yloxy)-3-methylphenyl)amino)pyrimido[5,4-d]pyrimidin-2-yl)-4-methylpiperidin-4-ol] | 5340 nM | 1.3 | 49.4 nM | ≥ 5000 nM | 19 nM | 20.6 nM | 7.8 |  |  |  |  |
| Cc1cc(Nc2ncnc3cnc(N4CC5CC5(O)C4)nc23)ccc1Oc1ccc2c(c1)ncn2C (stereo not shown) [Example 158, 3-(8-((3-methyl-4-((1-methyl-1H-benzo[d]imidazol-5-yl)oxy)phenyl)amino)pyrimido[5,4-d]pyrimidin-2-yl)-3-azabicyclo[3.1.0]hexan-1-ol] | ≥ 10000 nM | 1.9 | 9.8 nM | ≥ 5000 nM | 58.2 nM | 29.4 nM | 33.8 |  |  |  |  |
| COC[C@H](O)CN(C)c1ncc2ncnc(Nc3ccc(Oc4ccc5c(c4)ncn5C)c(C)c3)c2n1 (racemic) [Example 100, rac-(R)-1-methoxy-3-(methyl(8-((3-methyl-4-((1-methyl-1H-benzo[d]imidazol-5-yl)oxy)phenyl)amino)pyrimido[5,4-d]pyrimidin-2-yl)amino)propan-2-ol] | 4150 nM | 1.5 | 21.1 nM | ≥ 5000 nM | 31.8 nM | 28.8 nM | 18.2 |  |  |  |  |
| Cn1cnc2cc(Oc3ccc(Nc4ncnc5cnc(N6CCC67COC7)nc45)cc3Cl)ccc21.O=C(O)C(F)(F)F [Example 145, N-(3-chloro-4-((1-methyl-1H-benzo[d]imidazol-5-yl)oxy)phenyl)-6-(6-oxa-1-azaspiro[3.3]heptan-1-yl)pyrimido[5,4-d]pyrimidin-4-amine] | 896 nM | 0.7 | 20.2 nM | ≥ 5000 nM | 19.6 nM |  |  |  |  | 2.1 | 19.3 nM |
| Cc1cc(Nc2ncnc3cnc(N4CC[C@@](C)(O)C4)nc23)ccc1Oc1ccn2ncnc2c1 [Example 110, (R)-1-(8-((4-([1,2,4]triazolo[1,5-a]pyridin-7-yloxy)-3-methylphenyl)amino)pyrimido[5,4-d]pyrimidin-2-yl)-3-methylpyrrolidin-3-ol] | 3170 nM | 1.9 | 61.7 nM | ≥ 5000 nM | 32.8 nM | 33.5 nM | 32.2 |  |  |  |  |
